Assay results from EP0818453B1, “Benzothiophene compounds and methods of use” (ELI LILLY AND COMPANY, priority 1996, dated 1998).
Marks after values point to notes of the source that are not given here.

Tested on: ovariectomized rats
Test: Ovariectomized rat model of postmenopausal hyperlipidemia (serum cholesterol, uterine weight, uterine eosinophil peroxidase)
Format: in vivo
Conditions: for Serum Cholest. % Dec.: decrease versus ovariectomized controls; for Uterine Eosinophil (Vmax): eosinophil peroxidase, Vmaximum; for Uterine Weight % Inc: increase versus ovariectomized controls
Method: Experimental models of postmenopausal hyperlipidemia are known in the art. Germane to this invention is the ovariectomized rat model which is detailed in U.S. 5,464,845.
Data presented in Table 1 show comparative results among ovariectomized rats, rats treated with 17-a-ethynyl estradiol(EE2), and rats treated with certain compounds of this invention. […] This uterine response to estrogen is well recognized in the art.
As expressed in the data below, estrogenicity also was assessed by evaluating the response of eosinophil infiltration into the uterus.
The data presented in Table 1 reflect the response per treatment group.

Row | Uterine Eosinophil (Vmax) (0.001 mg/kg PO) | Uterine Weight % Inc (0.001 mg/kg PO) | Uterine Eosinophil (Vmax) (0.01 mg/kg PO) | Uterine Weight % Inc (0.01 mg/kg PO) | Uterine Eosinophil (Vmax) (0.1 mg/kg PO) | Uterine Weight % Inc (0.1 mg/kg PO) | SMILES | Serum Cholest. % Dec. (0.001 mg/kg PO) | Serum Cholest. % Dec. (0.01 mg/kg PO) | Serum Cholest. % Dec. (0.1 mg/kg PO) | Serum Cholest. % Dec. (1.0 mg/kg PO) | Serum Cholest. % Dec. (10.0 mg/kg PO) | uterine weight (0.1 mg/kg/day orally, versus ovariectomized animals, result in words) | serum cholesterol (orally administered at 0.1 mg/kg/day, result in words) | eosinophil infiltration into the uterus (stromal layer of ovariectomized rat uteri, result in words)
1 |  |  |  |  |  |  | C[C@]12CC[C@@H]3c4ccc(O)cc4CC[C@H]3[C@@H]1CC[C@@H]2O [17-b-Estradiol] | 67.6* % | 57.5* % | 58.7* % |  |  |  |  | 
2 |  |  |  |  |  |  | Cl.O=C(c1ccc(-c2ccc(OCCN3CCCCC3)cc2)cc1)c1c(-c2ccc(O)cc2)sc2cc(O)ccc12 [Compound 5, [2-(4-Hydroxyphenyl)-6-hydroxybenzo[b]thien-3-yl] [4'-[2-(1-piperidinyl)ethoxy]biphenyl-4-yl]methanone hydrochloride] |  | 15.9* % | 66.7* % | 87.3* % |  |  |  | 
3 |  |  |  |  |  |  | O=C(c1ccc2cc(OCCN3CCCCC3)ccc2c1)c1c(-c2ccc(O)cc2)sc2cc(O)ccc12 [Compound 10, [2-(4-Hydroxyphenyl)-6-hydroxybenzo[b]thien-3-yl][6-[2-(1-piperidinyl)ethoxy]naphth-2-yl]methanone] |  |  | 39.4* % | 59.3* % | 69.1* % |  |  | 
4 | 20* | 35.8* % | 25.6* | 61.0* % | 276.6* | 129.6* % | C#C[C@]1(O)CC[C@H]2[C@@H]3CCc4cc(O)ccc4[C@H]3CC[C@@]21C [EE2, 17-a-ethynyl estradiol] | -1.9% | 12% | 77.7* % |  |  | substantially greater than the uterine weight of the ovariectomized animals | caused a decrease in serum cholesterol | substantial and expected increase in eosinophil infiltration
